Tests used:
Genome polyprotein = Genome polyprotein (Coxsackievirus B3 (strain Nancy), UniProt P03313); assay: Inhibition of Coxsackievirus B3 Nancy 3Cpro
Replicase polyprotein 1a = Replicase polyprotein 1a (Severe acute respiratory syndrome-related coronavirus, UniProt P0C6U8); assay: Inhibition of SARS coronavirus 3CLpro using Dabcyl-KTSAVLQ/SGFRKME-Edans as substrate preincubated for 30 mins followed by substrate addition by FRET assay
[1] = Inhibition of norovirus 3CLpro using Edans-DFHLQ/GP-Dabcyl as substrate preincubated for 30 mins followed by substrate addition by FRET assay

Chain of Genome polyprotein (P03313 1541-1723 limits assumed): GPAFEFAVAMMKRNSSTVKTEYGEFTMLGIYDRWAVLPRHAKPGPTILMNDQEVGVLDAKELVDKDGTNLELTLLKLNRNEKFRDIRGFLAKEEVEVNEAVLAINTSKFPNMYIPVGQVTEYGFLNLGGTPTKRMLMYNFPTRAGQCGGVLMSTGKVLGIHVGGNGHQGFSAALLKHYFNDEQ

With `CC(C)C[C@@H]1NC(=O)[C@@H](NC(=O)OCc2ccccc2)Cc2cn(nn2)CCCNC(=O)CC[C@@H](C=O)NC1=O` the IC50 (Genome polyprotein) was 1.8 µM, the IC50 (Replicase polyprotein 1a) was 15.5 µM and the IC50 [1] was 5.1 µM.

From ChEMBL document CHEMBL2396618, “Macrocyclic inhibitors of 3C and 3C-like proteases of picornavirus, norovirus, and coronavirus” (Bioorg Med Chem Lett, 2013)
